Results on ten molecules are retold here after patent publication US12534748B2, “Engineered beta-subunit of tryptophan synthase for production of non-canonical amino acids” (California Institute of Technology, priority 2015, dated 2026).

Each structure is given as a SMILES string.

For the assay, the target named is T1, PfTrpB^2B9 (Pyrococcus furiosus, UniProt Q8U093, E17G/F274S/F95L/I16V/I68V/T292S/T321A/V384A).
T1 construct: made in house; host or cells: E. coli BL21 E. cloni Express
Nature of the assay: TTN of β-substitution reaction with L-Thr with different nucleophiles. Format: biochemical. The following applies: for TTN: LC-MS. The method, then:
Total Turnover Number (TTN) determination. Measurements were made using HPLC and LC-MS instruments. The amount of Trp formed was measured at 280 nm using a standard curve with trichlorobenzene as internal standard. […] This method is insensitive to loading volume and results agreed with measurements using a standard curve. […] This same technique was used to determine the TTN of the PfTrpB^2B9 reaction with different nucleophiles. […] Reactions were set up in triplicate using a total volume of 150 μL with 25 mM nucleophile and 250 mM L-Thr in 200 mM potassium phosphate pH 8.0 in borosilicate glass vials, as plastics can absorb indoles at high temperatures. Before addition of enzyme, all reagents were transferred into a Coy anaerobic chamber with <1 ppm O2 to rapidly exchange the atmosphere in the headspace of the vials to 95/5% N2/H2, which limits competing non-catalytic oxidation of indoles. Enzyme was added in the anaerobic environment with varied catalyst loading to ensure a robust product signal in subsequent analysis. Reaction vessels were capped before being removed from the anaerobic chamber and incubated in a 75° C. water bath for 24 hours. Reactions were quenched the next day by addition of 1 volume (150 μL) of 100% ACN, mixing, and allowing to rest at room temperature for 10 min. Quenched solutions were then diluted 5-fold with 40% ACN in water and analyzed via LC-MS. In all cases, auxiliary peaks that would indicate non-catalytic degradation of substrate were present at only low levels, contributing to <1% of the total integration signal for a given wavelength. For 7-azaindole, a second peak with m/z=220 was observed that was also found in larger scale reactions and whose properties are consistent with an N-alkylated product.
With these reaction conditions in hand, a characterization of the substrate scope of the reaction with Thr was performed. A small panel of indole-like nucleophiles were screened for reaction with PfTrpB^0B2 and Ser, and a significant boosts in activity was observed. This was expanded on this panel of nucleophiles and tests for activity with PfTrpB^2B9 using an excess of Thr was performed. Reactions were run to intermediate yield to determine the TTN with a given nucleophile and the identity of the products was established with a separate preparative-scale reaction using 100 mM nucleophile, 1.0 M Thr, and 0.02-0.25 mol % PfTrpB^2B9 catalyst. […] To probe the role of electronic effects on the C—C bond forming step, activity was tested with 4-fluoro and 5-fluoroindole, which are more closely isosteric with indole but have decreased electron density in the π-system. Product formation with each substrate and 3.4-fold decreased TTN with the 4-fluoro substrate was observed, which is more electron withdrawing at C-3 than the 5-fluoro substituent. The increased steric constraints of the activity site were again clear, as no activity with the 5-chloro-, 5-bromo, and 6-hydroxyindoles, which undergo reaction with Ser, was observed. […] This regioselectivity is well known with the indazole, which we found reacts exclusively to form the N-alkylated product. […] Inclusion of DTT reduced this side reaction.

The mark [1] stands for this setting: 25 mM nucleophile, 250 mM L-Thr, 24 hour reaction at 75° C.

T1 sequence (Q8U093 other isoform, or with tags, fused parts or gaps I16V/E17G/I68V/F95L/F274S/T292S/T321A/V384A): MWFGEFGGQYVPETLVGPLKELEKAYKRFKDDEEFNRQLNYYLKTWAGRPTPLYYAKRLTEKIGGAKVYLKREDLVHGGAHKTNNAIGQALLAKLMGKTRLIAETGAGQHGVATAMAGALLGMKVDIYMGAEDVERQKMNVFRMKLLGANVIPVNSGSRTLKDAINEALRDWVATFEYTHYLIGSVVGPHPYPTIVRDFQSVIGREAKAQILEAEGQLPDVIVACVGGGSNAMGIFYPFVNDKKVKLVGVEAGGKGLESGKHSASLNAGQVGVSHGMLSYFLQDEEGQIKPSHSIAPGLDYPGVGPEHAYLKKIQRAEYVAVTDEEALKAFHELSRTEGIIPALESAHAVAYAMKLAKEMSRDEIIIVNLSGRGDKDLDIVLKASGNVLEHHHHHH

On to `Cc1ccc2cc[nH]c2c1` [6-Methylindole], for which the “reactivity of nucleophile with PfTrpB^2B9 and excess Thr” value (shortened to “reactivity of nucleophile”) is “Good reactivity”. In addition, the TTN under setting [1] was determined as 1100 ± 100.
Turning to `Cc1cc2ccccc2[nH]1` [2-Methylindole], the “reactivity of nucleophile” value was “Good reactivity”. Also, the TTN under setting [1] is reported as 6400 ± 1400.
Under setting [1], `Fc1ccc2[nH]ccc2c1` [5-Fluoroindole] gave a TTN of 1300 ± 280.
For the molecule `Sc1ccccc1` [thiophenol], the “reactivity of nucleophile” value is “low turnover”.
Under setting [1], `Fc1cccc2[nH]ccc12` [4-Fluoroindole] yielded a TTN of 378 ± 8. Further, the “decrease of TTN” value (4-fluoro versus 5-fluoro substrate) is 3.4 fold.
With `c1ccc2c(c1)CCN2` [indoline], the “reactivity of nucleophile” value is on record as “no product formation”.
With `SCc1ccccc1` [benzyl mercaptan], the “reactivity of nucleophile” value was “low turnover”.
`c1ccc2[nH]ccc2c1` [Indole]: under setting [1], the TTN worked out at 8200 ± 1600.
As for `c1ccc2[nH]ncc2c1` [Indazole], the TTN under setting [1] came out at 500 ± 40.
`c1cnc2[nH]ccc2c1` [7-Azaindole]: under setting [1], the “TTN, C-alkylation” value is given as “C-alkylation-220 ± 40” and the “TTN, N-alkylation” value is recorded as “N-alkylation-32 ± 3”.
